Measured values published in ChEMBL document CHEMBL4431322, “Timosaponin AIII inhibits migration and invasion of A549 human non-small-cell lung cancer cells via attenuations of MMP-2 and MMP-9 by inhibitions of ERK1/2, Src/FAK and β-catenin signaling pathways” (2016).
Active and inactive are the calls of the source. No cut-off for these calls is given here.

Experiments:
[1] = system: A549; assay: Induction of apoptosis in human A549 cells assessed as early apoptotic cells at 9 uM after 24 hrs by flow cytometry (reference value: 15.45%); type: functional
[2] = system: A549; assay: Induction of apoptosis in human A549 cells assessed as late apoptotic cells at 9 uM after 24 hrs by flow cytometry (reference value: 7.9%); type: functional
[3] = system: A549; assay: Cytotoxicity against human A549 cells assessed as cell survival up to 10 uM incubated for 24 hrs by CCK8 assay; type: functional
[4] = system: A549; assay: Induction of apoptosis in human A549 cells assessed as live cells at 9 uM after 24 hrs by flow cytometry (reference value: 76.65%); type: functional
[5] = system: A549; assay: Induction of apoptosis in human A549 cells assessed as dead cells at 9 uM after 24 hrs by flow cytometry (reference value: 0%); type: functional
[6] = system: A549; assay: Cell cycle arrest in human A549 cells assessed as accumulation at G0/G1 phase at 9 uM after 24 hrs by flow cytometry (reference value: 66.5%); type: functional
[7] = system: A549; assay: Cell cycle arrest in human A549 cells assessed as accumulation at S phase at 9 uM after 24 hrs by flow cytometry (reference value: 18.3%); type: functional
[8] = system: A549; assay: Cell cycle arrest in human A549 cells assessed as accumulation at G2/M phase at 9 uM after 24 hrs by flow cytometry (reference value: 15.1%); type: functional
[9] = system: A549; assay: Antimigratory activity in human A549 cells incubated for 24 hrs by wound healing assay; type: functional, cell-based
[10] = system: A549; assay: Inhibition of cell invasion in human A549 cells at 1 to 3 uM after 24 hrs by Boyden's chamber transwell invasion assay; type: functional, cell-based
[11] = target: 72 kDa type IV collagenase (Homo sapiens) (UniProt P08253); assay: Inhibition of MMP2 activity in human A549 cells at 3 to 9 uM after 48 hrs by gelatin zymography; type: cell-based
[12] = target: Matrix metalloproteinase-9 (Homo sapiens) (UniProt P14780); assay: Inhibition of MMP9 activity in human A549 cells at 3 to 9 uM after 48 hrs by gelatin zymography; type: cell-based
[13] = system: A549; assay: Inhibition of MMP2 mRNA expression in human A549 cells at 3 uM after 48 hrs by RT-PCR analysis; type: functional, cell-based
[14] = system: A549; assay: Inhibition of MMP9 mRNA expression in human A549 cells at 3 uM after 48 hrs by RT-PCR analysis; type: functional, cell-based
[15] = target: Mitogen-activated protein kinase; ERK1/ERK2 (Homo sapiens) (UniProt P27361+P28482); assay: Inhibition of ERK1/2 phosphorylation in human A549 cells after 24 hrs by Western blot analysis; type: cell-based
[16] = target: MAP kinase p38 (Homo sapiens) (UniProt O15264+Q15759+Q16539+P53778); assay: Inhibition of p38 phosphorylation in human A549 cells at 3 to 9 uM after 24 hrs by Western blot analysis; type: cell-based
[17] = target: c-Jun N-terminal kinase, JNK (Homo sapiens) (UniProt P45983+P53779+P45984); assay: Inhibition of JNK phosphorylation in human A549 cells at 3 to 9 uM after 24 hrs by Western blot analysis; type: cell-based
[18] = target: Proto-oncogene tyrosine-protein kinase Src (Homo sapiens) (UniProt P12931); assay: Inhibition of c-Src phosphorylation in human A549 cells at 3 to 9 uM after 24 hrs by Western blot analysis; type: cell-based
[19] = target: Focal adhesion kinase 1 (Homo sapiens) (UniProt Q05397); assay: Inhibition of FAK phosphorylation in human A549 cells at 3 to 9 uM after 24 hrs by Western blot analysis; type: cell-based
[20] = target: T1, Catenin beta-1 (Homo sapiens) (UniProt P35222); assay: Inhibition of beta-catenin signalling in human A549 cells assessed as reduction in beta-catenin level at 3 to 9 uM after 24 hrs by Western blot analysis; type: cell-based
T1 sequence (whole entry): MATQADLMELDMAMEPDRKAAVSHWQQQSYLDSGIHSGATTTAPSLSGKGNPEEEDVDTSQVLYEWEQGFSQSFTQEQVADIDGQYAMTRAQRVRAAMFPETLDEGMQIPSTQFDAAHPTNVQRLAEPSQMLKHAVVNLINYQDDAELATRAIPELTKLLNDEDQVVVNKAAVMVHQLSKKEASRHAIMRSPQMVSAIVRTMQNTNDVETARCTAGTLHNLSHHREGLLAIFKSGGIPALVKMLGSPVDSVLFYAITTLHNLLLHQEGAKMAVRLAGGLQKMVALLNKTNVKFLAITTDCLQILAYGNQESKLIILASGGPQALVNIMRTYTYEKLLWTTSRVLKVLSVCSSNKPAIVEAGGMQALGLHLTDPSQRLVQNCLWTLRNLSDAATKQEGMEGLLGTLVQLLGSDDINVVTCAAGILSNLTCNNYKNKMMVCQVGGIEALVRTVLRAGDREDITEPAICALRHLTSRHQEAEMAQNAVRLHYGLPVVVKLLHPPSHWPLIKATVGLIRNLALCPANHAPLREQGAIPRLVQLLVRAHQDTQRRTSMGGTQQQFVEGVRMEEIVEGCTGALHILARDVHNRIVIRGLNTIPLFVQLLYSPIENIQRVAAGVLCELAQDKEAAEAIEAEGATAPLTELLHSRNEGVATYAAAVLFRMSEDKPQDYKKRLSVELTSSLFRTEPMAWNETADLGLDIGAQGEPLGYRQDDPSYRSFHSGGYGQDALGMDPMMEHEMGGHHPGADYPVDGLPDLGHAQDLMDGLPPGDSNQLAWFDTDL

[21] = system: NCI-H1299; assay: Antimigratory activity in human H1299 cells at 1 to 6 uM incubated for 24 hrs by wound healing assay; type: functional, cell-based
[22] = system: NCI-H1299; assay: Inhibition of cell invasion in human H1299 cells at 1 to 3 uM after 24 hrs by Boyden's chamber transwell invasion assay; type: functional, cell-based
[23] = target: Matrix metalloproteinase-9 (Homo sapiens) (UniProt P14780); assay: Inhibition of MMP9 activity in human H1299 cells at 3 uM after 48 hrs by gelatin zymography; type: cell-based
[24] = target: 72 kDa type IV collagenase (Homo sapiens) (UniProt P08253); assay: Inhibition of MMP2 activity in human H1299 cells at 3 uM after 48 hrs by gelatin zymography; type: cell-based
[25] = system: NCI-H1299; assay: Inhibition of MMP9 mRNA expression in human H1299 cells at 3 uM after 48 hrs by RT-PCR analysis; type: functional, cell-based
[26] = system: NCI-H1299; assay: Inhibition of MMP2 mRNA expression in human H1299 cells at 3 uM after 48 hrs by RT-PCR analysis; type: functional, cell-based

Matrix metalloproteinase-9 (Homo sapiens), sequence (P14780 whole entry): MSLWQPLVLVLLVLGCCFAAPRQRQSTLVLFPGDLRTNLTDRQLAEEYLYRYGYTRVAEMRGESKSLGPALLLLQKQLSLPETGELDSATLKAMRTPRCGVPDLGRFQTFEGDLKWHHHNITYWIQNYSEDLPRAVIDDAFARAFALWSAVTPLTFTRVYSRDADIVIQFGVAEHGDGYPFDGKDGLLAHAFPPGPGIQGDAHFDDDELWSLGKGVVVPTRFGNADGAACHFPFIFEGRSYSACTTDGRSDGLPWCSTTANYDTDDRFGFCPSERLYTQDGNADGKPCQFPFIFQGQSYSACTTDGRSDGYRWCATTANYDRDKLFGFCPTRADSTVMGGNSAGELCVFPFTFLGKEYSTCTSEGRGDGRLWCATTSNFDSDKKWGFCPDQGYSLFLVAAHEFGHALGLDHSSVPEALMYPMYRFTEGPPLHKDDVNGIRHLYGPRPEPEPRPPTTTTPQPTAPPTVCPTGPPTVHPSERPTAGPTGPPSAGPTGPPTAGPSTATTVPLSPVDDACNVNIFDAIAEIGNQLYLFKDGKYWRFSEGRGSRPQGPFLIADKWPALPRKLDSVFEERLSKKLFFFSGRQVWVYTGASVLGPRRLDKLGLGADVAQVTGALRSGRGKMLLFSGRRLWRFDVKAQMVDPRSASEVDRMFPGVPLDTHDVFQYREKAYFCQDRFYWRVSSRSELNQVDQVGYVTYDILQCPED
72 kDa type IV collagenase (Homo sapiens), sequence (P08253 110-660 limits assumed): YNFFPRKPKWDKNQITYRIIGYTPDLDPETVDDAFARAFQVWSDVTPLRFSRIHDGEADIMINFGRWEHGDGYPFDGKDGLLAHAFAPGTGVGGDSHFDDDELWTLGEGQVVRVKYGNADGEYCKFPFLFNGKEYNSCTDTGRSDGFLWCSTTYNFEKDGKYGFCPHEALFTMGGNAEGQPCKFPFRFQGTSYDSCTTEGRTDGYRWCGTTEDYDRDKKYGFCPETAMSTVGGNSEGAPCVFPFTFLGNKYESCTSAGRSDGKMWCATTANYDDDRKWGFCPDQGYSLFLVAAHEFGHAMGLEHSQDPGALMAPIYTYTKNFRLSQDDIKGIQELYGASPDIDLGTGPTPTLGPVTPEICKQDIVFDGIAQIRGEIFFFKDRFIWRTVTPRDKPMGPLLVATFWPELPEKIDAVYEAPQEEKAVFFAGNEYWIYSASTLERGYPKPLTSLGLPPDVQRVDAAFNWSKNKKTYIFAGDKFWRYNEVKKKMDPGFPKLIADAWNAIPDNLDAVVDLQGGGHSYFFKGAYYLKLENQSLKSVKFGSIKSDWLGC
Proto-oncogene tyrosine-protein kinase Src (Homo sapiens), sequence (P12931 2-536 limits assumed): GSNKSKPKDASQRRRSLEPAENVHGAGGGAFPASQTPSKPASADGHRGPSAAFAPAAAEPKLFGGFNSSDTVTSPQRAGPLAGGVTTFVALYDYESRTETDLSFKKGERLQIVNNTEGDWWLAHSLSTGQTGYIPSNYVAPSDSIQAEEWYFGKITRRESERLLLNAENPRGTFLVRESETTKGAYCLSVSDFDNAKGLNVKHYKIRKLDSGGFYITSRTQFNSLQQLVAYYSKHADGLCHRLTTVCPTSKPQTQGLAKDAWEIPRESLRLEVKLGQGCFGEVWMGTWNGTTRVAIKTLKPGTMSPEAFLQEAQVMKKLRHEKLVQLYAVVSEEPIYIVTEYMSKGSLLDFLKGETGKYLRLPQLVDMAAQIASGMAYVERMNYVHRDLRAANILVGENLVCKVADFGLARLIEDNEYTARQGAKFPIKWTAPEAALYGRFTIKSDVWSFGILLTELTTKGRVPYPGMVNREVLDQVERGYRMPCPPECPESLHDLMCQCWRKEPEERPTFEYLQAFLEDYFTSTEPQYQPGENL
Focal adhesion kinase 1 (Homo sapiens), sequence (Q05397 2-1052 limits assumed): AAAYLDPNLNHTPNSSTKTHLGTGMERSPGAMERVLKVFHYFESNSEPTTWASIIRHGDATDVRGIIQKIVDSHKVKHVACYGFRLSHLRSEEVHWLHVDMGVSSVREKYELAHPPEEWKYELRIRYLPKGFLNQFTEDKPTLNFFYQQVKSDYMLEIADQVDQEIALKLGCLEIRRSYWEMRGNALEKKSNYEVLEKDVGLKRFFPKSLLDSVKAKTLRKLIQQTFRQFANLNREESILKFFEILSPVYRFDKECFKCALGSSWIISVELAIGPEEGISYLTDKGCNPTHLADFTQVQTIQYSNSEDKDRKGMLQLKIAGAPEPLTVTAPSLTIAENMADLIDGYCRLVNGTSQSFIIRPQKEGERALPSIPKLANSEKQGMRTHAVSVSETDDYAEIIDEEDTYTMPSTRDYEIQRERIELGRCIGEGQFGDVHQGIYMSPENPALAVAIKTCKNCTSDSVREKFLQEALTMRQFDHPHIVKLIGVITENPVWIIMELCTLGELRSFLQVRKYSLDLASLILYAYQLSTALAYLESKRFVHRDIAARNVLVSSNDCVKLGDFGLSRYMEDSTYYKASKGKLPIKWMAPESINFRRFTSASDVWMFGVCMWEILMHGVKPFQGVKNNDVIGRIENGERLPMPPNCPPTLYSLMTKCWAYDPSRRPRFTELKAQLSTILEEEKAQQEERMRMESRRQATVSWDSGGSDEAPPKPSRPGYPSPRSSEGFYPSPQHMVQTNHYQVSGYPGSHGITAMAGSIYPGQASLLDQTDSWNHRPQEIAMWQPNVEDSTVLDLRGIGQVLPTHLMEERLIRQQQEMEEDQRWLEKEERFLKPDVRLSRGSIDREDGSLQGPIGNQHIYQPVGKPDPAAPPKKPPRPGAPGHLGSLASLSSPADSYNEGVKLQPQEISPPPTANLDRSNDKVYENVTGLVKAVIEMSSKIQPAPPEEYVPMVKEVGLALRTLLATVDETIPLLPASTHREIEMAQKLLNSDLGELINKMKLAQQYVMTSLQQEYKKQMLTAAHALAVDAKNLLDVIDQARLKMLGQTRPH
Mitogen-activated protein kinase; ERK1/ERK2 (Homo sapiens), sequence (P27361 whole entry, looked up): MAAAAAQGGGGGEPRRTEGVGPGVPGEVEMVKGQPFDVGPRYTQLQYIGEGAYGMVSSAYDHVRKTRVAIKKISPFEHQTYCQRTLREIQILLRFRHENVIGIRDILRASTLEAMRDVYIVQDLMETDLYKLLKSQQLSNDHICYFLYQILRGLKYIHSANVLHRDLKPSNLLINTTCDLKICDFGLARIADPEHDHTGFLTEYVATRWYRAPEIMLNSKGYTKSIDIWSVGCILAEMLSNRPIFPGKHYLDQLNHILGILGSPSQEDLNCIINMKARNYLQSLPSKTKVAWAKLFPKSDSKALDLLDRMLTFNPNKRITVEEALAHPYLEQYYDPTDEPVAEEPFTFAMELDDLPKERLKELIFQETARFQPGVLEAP
Mitogen-activated protein kinase; ERK1/ERK2 (Homo sapiens), sequence (P28482 whole entry, looked up): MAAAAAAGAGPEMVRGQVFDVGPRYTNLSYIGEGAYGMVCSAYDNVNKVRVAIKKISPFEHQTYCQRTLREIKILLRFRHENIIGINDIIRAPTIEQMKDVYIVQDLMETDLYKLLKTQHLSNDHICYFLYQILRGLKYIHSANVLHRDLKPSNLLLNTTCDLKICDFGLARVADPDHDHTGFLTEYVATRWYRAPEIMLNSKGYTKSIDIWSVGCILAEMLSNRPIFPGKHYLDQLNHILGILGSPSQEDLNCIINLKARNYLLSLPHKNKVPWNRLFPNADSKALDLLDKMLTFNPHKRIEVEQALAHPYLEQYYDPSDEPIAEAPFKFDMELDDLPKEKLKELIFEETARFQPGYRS

With `C[C@H]1CC[C@@]2(OC1)O[C@H]1C[C@H]3[C@@H]4CC[C@@H]5C[C@@H](O[C@@H]6O[C@H](CO)[C@@H](O)[C@H](O)[C@H]6O[C@@H]6O[C@H](CO)[C@@H](O)[C@H](O)[C@H]6O)CC[C@]5(C)[C@H]4CC[C@]3(C)[C@H]1[C@@H]2C` the Activity [1] was 29.25%, the Activity [2] was 16.6% and the Survival [3] was <50%. It also gave an Activity [4] of 54.15%, an Activity [5] of 0% and an Activity [6] of 74.8%. The Activity [7] was 11.2%, the Activity [8] was 14% and the inhibition [9] was “Dose-dependent effect”. The inhibition [10] was “Active”, the inhibition [11] was “Active” and the inhibition [12] was “Active”. For the same compound, the inhibition [13] was “Active”, the inhibition [14] was “Active” and the inhibition [15] was “Dose-dependent effect”. For the same compound, the inhibition [16] was “inactive”, the inhibition [17] was “inactive” and the inhibition [18] was “Active”. The inhibition [19] was “Active”, the inhibition [20] was “Active” and the inhibition [21] was “Active”. For the same compound, the inhibition [22] was “Active”, the inhibition [23] was “Active” and the inhibition [24] was “Active”. For the same compound, the inhibition [25] was “Active” and the inhibition [26] was “Active”.
